Test results: patent US6758840B2, “Drug delivery device” (Metris Therapeutics Limited, priority 2000, dated 2004)

Experiments:
[1] = Plasma mefenamic acid after intra-vaginal device with adhesive tape layer (Example 2); assay type: in vivo, Rhesus monkeys; settings: intra-vaginal tampon device, double-sided adhesive tape as fluid-impermeable layer, mefenamic acid powder dusted on; Rhesus monkey plasma
Excerpt: Devices according to the present invention were made and used to deliver a pharmaceutical agent intra-vaginally in Rhesus monkeys.
(§1) Materials used in the manufacture of commercial tampons for human use were reconstituted to produce tampons with dimensions 7 mm×25 mm or 5 mm×25 mm. Depending on the weight of an individual Rhesus monkey, one of these sizes of tampon was able to be conveniently inserted into the vagina of the Rhesus monkey.
A strip of double-sided adhesive tape was secured to the surface of the tampons to function as the fluid-impermeable layer. Mefenamic acid powder was “dusted” onto the surface of the tape and non-adherent mefenamic acid was removed.
(§2) Rhesus monkeys were anaesthetised with ketamine hydrochloride and one of the above-mentioned tampon devices was inserted into the vagina of each monkey. A 19 gauge catheter was inserted into the saphenous vein of each monkey. This catheter was used to collect blood samples during the course of the study. The monkeys were returned to their cages when appropriate.
(§3) Blood samples were taken at intervals and plasma was prepared and frozen. After the completion of the study, all plasma samples were assayed for the concentration of mefenamic acid.

[2] = Plasma mefenamic acid after intra-vaginal device with wax layer (Example 3); assay type: in vivo, Rhesus monkeys; settings: intra-vaginal tampon device, wax fluid-impermeable layer, mefenamic acid dusted on; Rhesus monkey plasma
Excerpt: Further devices according to the present invention were made and used to deliver a pharmaceutical agent intra-vaginally in Rhesus monkeys.
as §1
Wax material was used to create a fluid-impermeable layer of the tampons by warming the wax layer to make it adhere to the body of the tampon. Once the wax layer had been applied, mefenamic acid was “dusted” onto the device while the device was warmed to aid adhesion between the wax and the mefenamic acid. Non-adherent mefenamic acid was removed.
as §2, §3

[3] = Plasma mefenamic acid after intra-vaginal wax-layer device, eight monkeys (Example 4); assay type: in vivo; settings: average 6.4 mg mefenamic acid per device, mean of eight Rhesus monkeys
Experimental: Eight devices were prepared as described in Example 3. The devices were assayed and the average amount of mefenamic found to be in each device was 6.4 mg. Each device was inserted into the vagina of one of eight Rhesus monkeys. The monkeys all weighed in the range 7.27 kg to 8.95 kg.
(§4) Blood samples were taken from the Rhesus monkeys and the samples were assayed as described in Example 3, at the time intervals shown in the graph of FIG. 18. The results of this study are shown in the graph of FIG. 18, which indicates the concentration in ng/ml of mefenamic acid found in the plasma of the Rhesus monkeys with time following insertion of the devices of this example. Each point of the graph of FIG. 18 represents the mean value of the concentration of the eight monkeys.

[4] = Comparison of uptake of mefenamic acid from device and from slurry (Example 5); assay type: in vivo; settings: Rhesus monkeys
Excerpt: A comparison was made between the uptake of mefenamic acid in Rhesus monkeys where the mefenamic acid was introduced intra-vaginally using the devices of Example 3 and the uptake of mefenamic acid in Rhesus monkeys where a slurry comprising mefenamic acid was introduced intra-vaginally.
The slurry of mefenamic acid applied to a Rhesus monkey comprised a total amount of mefenamic acid that was greater than ten times that applied to a Rhesus monkey using the device of Example 3.
as §4, with “19.” for “18.”, “19,” for “18,”, “devices (circles) and slurry (triangles)” for “devices”, “example.” for “example. Each point of the graph of FIG. 18 represents the mean value of the concentration of the eight monkeys.”

Cc1cccc(Nc2ccccc2C(=O)O)c1C [mefenamic acid]
transport across the vaginal mucosa / systemic circulation (plasma concentration, FIG. 16) [1]: mefenamic acid was transported across the vaginal mucosa and systemic circulation of mefenamic acid was achieved
transport across the vaginal mucosa / systemic circulation (plasma concentration, FIG. 17) [2]: mefenamic acid was transported across the vaginal mucosa and systemic circulation of mefenamic acid was achieved
transport across the vaginal mucosa / systemic circulation (plasma concentration, FIG. 18) [3]: mefenamic acid was transported across the vaginal mucosa and systemic circulation of mefenamic acid was achieved
uptake of mefenamic acid (plasma concentration, FIG. 19) ([4]; introduced intra-vaginally as slurry, total amount greater than ten times that of the device): only limited uptake of mefenamic acid by the monkeys was achieved
uptake of mefenamic acid (plasma concentration, FIG. 19) ([4]; introduced intra-vaginally using the device of Example 3 (wax layer)): transportation of mefenamic acid across the vaginal mucosa and systemic circulation of mefenamic acid in the Rhesus monkeys was achieved
